From patent US20160256511A1, “COMPOSITIONS AND METHODS FOR THE TREATMENT OR PROPHYLAXIS OF CIRCADIAN PROTEIN RELATED CONDITIONS” (IN INGREDIENTS, INC., priority 2013, published 2016)

Legend:
Type in all cases: cell-based, Porcine
Conditions in all cases: 24 hr, all three concentrations (1 μM; 5 μM; 20 μM)
Bmal1 = Bmal1 immunofluorescence in iPEC-1 cells treated with ursolic acid
Protocol: (§1) iPEC-1 cells were grown as a monolayer in DMEM with 10% fetal bovine serum (FBS) and the necessary supplements at 37° C. in a humidified incubator with 5% CO2. iPEC1 cells were seeded on 35 mm dishes. Experiments were initiated 48 hr after plating. Cells were treated with saline or with ursolic acid at three separate dosages (1 μM; 5 μM; or 20 μM) in the medium for 24 hr at 37° C. The cells were then washed with ice-cold PBS and fixed with 4% paraformaldehyde for 10 min at room temperature followed by permeabilization with 0.3% Triton X-100 for 10 min. After being washed with PBS three times, cells were incubated for 1 hr in PBS containing 10% normal goat serum blocking solution. The cells were subjected to immunofluorescence staining with the target specific antibodies (SIRT1, CLOCK and Bmal1) overnight at 4° C. The cells were then washed with cold PBS three times for 3 min each, and incubated with Alexa-labeled secondary antibodies (Invitrogen) at room temperature for 1 h. The cells were examined by fluorescence microscopy (a Nikon TE2000-S microscope, Nikon, Tokyo, Japan).

CLOCK = CLOCK immunofluorescence in iPEC-1 cells treated with ursolic acid
Protocol: as §1

SIRT1 = SIRT1 immunofluorescence in iPEC-1 cells treated with ursolic acid
Protocol: as §1

With `C[C@H]1[C@H](C)CC[C@]2(C(=O)O)CC[C@]3(C)C(=CC[C@@H]4[C@@]5(C)CC[C@H](O)C(C)(C)[C@@H]5CC[C@]43C)[C@H]12` [ursolic acid] the “intensity of immunofluorescence of Bmal1 compared with controls” value (Bmal1) was “significantly induced the intensity of immunofluorescence”, the “intensity of immunofluorescence of CLOCK compared with controls” value (CLOCK) was “significantly induced the intensity of immunofluorescence” and the “intensity of immunofluorescence of SIRT1 compared with controls” value (SIRT1) was “significantly induced the intensity of immunofluorescence”.
